In ChEMBL document CHEMBL5532639, “Heterocyclic pyrimidine derivatives as promising antibacterial agents” (Eur J Med Chem, 2023):
pIC50: −log10 of the molar value. In brackets after ≈: the same amount, converted by molar mass.

Experiments:
Pneumocystis carinii = assay: Antifungal activity against Pneumocystis carinii assessed as reduction in fungal growth; assay type: functional, organism-based
Toxoplasma gondii = assay: Antiparasitic activity against Toxoplasma gondii assessed as parasitic growth inhibition; assay type: functional, organism-based
Streptococcus pneumoniae = assay: Antibacterial activity against Streptococcus pneumoniae; assay type: functional
Bacillus subtilis = assay: Antibacterial activity against Bacillus subtilis; assay type: functional
Staphylococcus aureus = assay: Antibacterial activity against Staphylococcus aureus; assay type: functional
Pseudomonas aeruginosa = assay: Antibacterial activity against Pseudomonas aeruginosa; assay type: functional
Escherichia coli = assay: Antibacterial activity against Escherichia coli; assay type: functional

SMILES | pIC50 (Pneumocystis carinii) | pIC50 (Toxoplasma gondii) | MIC (Streptococcus pneumoniae) | MIC (Bacillus subtilis) | MIC (Staphylococcus aureus) | MIC (Pseudomonas aeruginosa) | MIC (Escherichia coli)
COc1ccc(-c2cc(C#Cc3ccc(C(=O)O)cc3)cc(Cc3cnc(N)nc3N)c2)cc1OC | 5.92 | 6.38 | – | – | – | – | –
O=c1[nH]c(=S)[nH]c2nc(-c3ccc(Cl)cc3)cc(-c3ccccc3)c12 | – | – | 0.98 µg/mL (≈ 2.68 µM) | 1.95 µg/mL (≈ 5.33 µM) | 3.9 µg/mL (≈ 10.7 µM) | 3.9 µg/mL (≈ 10.7 µM) | 0.98 µg/mL (≈ 2.68 µM)
